Source: patent US20140213558A1, “TREATMENT OF INFLAMMATORY DISEASE OR DISORDER AND COMPOSITIONS THEREFOR” (CREDE OILS (PTY) LTD, priority 2011, published 2014)

Test: Comparison of pure TQ with Nigella sativa oil
Settings: administration of pure TQ
Description: Nevertheless, some embodiments of the invention may include N. sativa oil and/or its essential oil, either as the sole or primary active or in combination with EPA and/or GLA. […] Thus, N. sativa essential oil may provide a therapeutic or prophylactic effect in some embodiments of the invention, particularly in those embodiments in which one or more other actives (e.g., EPA, GLA, etc.) are also administered. Similarly, embodiments of the invention may include derivatives and/or precursors of TQ, including polymers of TQ.

SMILES: CC1=CC(=O)C(C(C)C)=CC1=O [TQ, 2-isopropyl-5-methylbenzo-1,4-quinone]
- effectiveness relative to Nigella sativa oil: more effective than the administration of Nigella sativa oil
